Assay results published in patent US20050171119A1, “Pharmaceutical formulations with modified release” (UCB, S.A., priority 2002, published 2005).

Key:
histamine H1 receptor = histamine H1 receptor (Homo sapiens, UniProt P35367); details: background statement; cited from earlier work
[1] = Crossover trial: 10 mg IR solution plus 25 mg PR tablet J, fasting or after a meal, vs 15 mg IR solution twice; assay type: in vivo, human volunteers; details: human, plasma, oral, IR solution 15 mg × 2, 12-hour interval; for Cmax / Tmax: 15 mg
Description: In a crossover trial, 12 volunteers received 3 types of treatments: • 10 mg of IR efletirizine in the form of a solution and one PR tablet of 25 mg of efletirizine (J) while fasting; • 10 mg of IR efletirizine in the form of a solution and one PR tablet of 25 mg of efletirizine (J) after a standardized fatty meal; • 15 mg of IR efletirizine in the form of a solution, taken twice with a 12-hour interval
The first 3 components are granulated. The last 3 are then added and the mixture is compressed. The tablet J is a repeat of the composition of the tablet F, to which a granulating agent, Povidone K30™, has been added.

[2] = Administration of 60 mg IR efletirizine gelatin capsule: influence of a meal; assay type: in vivo, patients; details: for AUC / Cmax / Tmax: human, in vivo, oral, 60 mg, 60 mg gelatin capsule
Description: A gelatin capsule containing 60 mg of efletirizine was administered to 20 fasting patients and to 22 patients who had eaten a standardized fatty meal beforehand.

[3] = Administration of 2 times 15 mg of efletirizine in solution with a 12-hour interval; assay type: in vivo, healthy volunteers; details: human, plasma, oral, 2 times 15 mg in solution; for Cmax / Tmax: 15 mg
Description: Two times 15 mg of efletirizine in solution were administered to 12 healthy volunteers, with a 12-hour interval.

[4] = second dose, read-out: Cmax (2)
[5] = second dose, read-out: tmax (2)
[6] = 60 mg IR gelatin capsule, after a meal vs fasting
[7] = after a standardized fatty meal

Chain of histamine H1 receptor (P35367 whole entry, species assumed): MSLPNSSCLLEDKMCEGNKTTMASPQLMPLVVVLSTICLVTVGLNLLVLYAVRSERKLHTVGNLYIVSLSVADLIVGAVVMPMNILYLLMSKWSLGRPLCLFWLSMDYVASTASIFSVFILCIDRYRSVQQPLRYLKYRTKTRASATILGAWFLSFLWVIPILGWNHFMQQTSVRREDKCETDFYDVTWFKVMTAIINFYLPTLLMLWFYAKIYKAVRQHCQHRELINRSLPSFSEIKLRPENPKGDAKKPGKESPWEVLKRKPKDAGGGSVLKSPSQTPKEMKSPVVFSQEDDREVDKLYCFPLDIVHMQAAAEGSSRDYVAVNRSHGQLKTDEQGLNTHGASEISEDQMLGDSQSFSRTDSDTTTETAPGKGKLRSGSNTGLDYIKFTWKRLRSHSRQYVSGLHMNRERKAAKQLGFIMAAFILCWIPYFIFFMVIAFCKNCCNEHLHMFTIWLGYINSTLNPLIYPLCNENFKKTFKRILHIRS

Cmax ([1]; first dose, read-out: Cmax (1)): 307 ng/mL | Tmax ([1]; first dose, read-out: tmax (1)): 0.6 h | Cmax [1, 4]: 305 ng/mL | Tmax [1, 5]: 12.6 h | AUC [1]: 2800 ng·h/mL | decrease of Cmax by having a meal [2, 6]: 42% | influence of a meal on bioavailability [2, 6]: decreased | AUC [2, 7]: 5780 ng·h/mL | Cmax [2, 7]: 855 ng/mL | Tmax [2, 7]: 3.03 h | AUC ([2]; fasting): 6350 ng·h/mL | Cmax ([2]; fasting): 1470 ng/mL | Tmax ([2]; fasting): 0.77 h | Cmax ([3]; first dose, read-out: Cmax(1)): 307 ng/mL | Tmax ([3]; first dose, read-out: tmax (1)): 0.6 h | Cmax [3, 4]: 305 ng/mL | Tmax [3, 5]: 12.6 h | AUC [3]: 2800 ng·h/mL
Structure (SMILES): O=C(O)COCCN1CCN(C(c2ccc(F)cc2)c2ccc(F)cc2)CC1 [efletirizine, 2-[2-[4-[Bis(4-fluorophenyl)methyl]-1-piperazinyl]-ethoxy]acetic acid]
affinity in vitro for H1 receptors (histamine H1 receptor): great affinity | selectivity in vitro for H1 receptors (histamine H1 receptor): great selectivity
